How the values were obtained:
[1] = biological target: MMP-8 (Homo sapiens (Human), UniProt P22894); test: Enzyme inhibition, MMP-8 catalytic domain; format: biochemical
Protocol: (§1) Inhibitor stock solutions (10 mM) were prepared freshly in DMSO before enzyme inhibition assays. […] Enzyme inhibition studies were carried out using a Cary Eclipse fluorescence spectrophotometer (Varian, Walnut Creek, Calif., USA).

[2] = biological target: T1, MMP-9 (Homo sapiens (Human), UniProt P14780); test: Enzyme inhibition, MMP-9 catalytic domain; format: biochemical; conditions: for residence time: calculated as 1/koff
Target sequence in this assay (P14780 107-444): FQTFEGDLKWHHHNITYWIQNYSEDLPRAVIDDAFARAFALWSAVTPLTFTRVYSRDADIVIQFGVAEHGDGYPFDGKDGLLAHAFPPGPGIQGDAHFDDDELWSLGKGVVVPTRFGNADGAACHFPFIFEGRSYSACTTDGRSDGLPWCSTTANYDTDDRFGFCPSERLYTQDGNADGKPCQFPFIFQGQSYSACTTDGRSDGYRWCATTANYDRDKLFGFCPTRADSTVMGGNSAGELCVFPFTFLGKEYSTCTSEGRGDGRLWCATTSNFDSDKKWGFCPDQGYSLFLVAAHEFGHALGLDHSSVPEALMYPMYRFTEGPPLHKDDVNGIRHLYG
Protocol: as §1

[3] = test system: ultraviolet B irradiated murine skin; conditions: Kobayashi & Shinkai (2005); cited from earlier work
[4] = biological target: T1, MMP-9; conditions: for comparison; cited from earlier work
Target sequence in this assay (P14780 94-707, species assumed): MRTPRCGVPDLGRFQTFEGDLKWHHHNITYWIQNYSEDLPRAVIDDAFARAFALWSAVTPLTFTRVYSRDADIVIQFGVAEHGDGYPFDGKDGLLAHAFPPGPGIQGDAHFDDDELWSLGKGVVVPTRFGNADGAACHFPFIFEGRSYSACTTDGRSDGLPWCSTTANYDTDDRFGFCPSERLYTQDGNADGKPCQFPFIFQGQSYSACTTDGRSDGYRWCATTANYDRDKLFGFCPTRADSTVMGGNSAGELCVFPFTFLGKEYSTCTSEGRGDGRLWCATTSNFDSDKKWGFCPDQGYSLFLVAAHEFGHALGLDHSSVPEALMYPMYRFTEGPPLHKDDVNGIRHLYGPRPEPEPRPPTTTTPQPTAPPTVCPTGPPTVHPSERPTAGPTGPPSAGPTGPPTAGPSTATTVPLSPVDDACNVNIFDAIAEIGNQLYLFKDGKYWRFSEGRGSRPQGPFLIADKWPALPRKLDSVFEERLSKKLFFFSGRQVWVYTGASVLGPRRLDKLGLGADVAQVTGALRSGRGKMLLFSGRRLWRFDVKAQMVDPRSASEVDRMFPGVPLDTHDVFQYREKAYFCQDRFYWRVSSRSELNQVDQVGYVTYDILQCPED

[5] = biological target: MMP-2 (Homo sapiens (Human), UniProt P08253); conditions: for comparison; cited from earlier work
Chain of MMP-2 (P08253 110-660, species assumed): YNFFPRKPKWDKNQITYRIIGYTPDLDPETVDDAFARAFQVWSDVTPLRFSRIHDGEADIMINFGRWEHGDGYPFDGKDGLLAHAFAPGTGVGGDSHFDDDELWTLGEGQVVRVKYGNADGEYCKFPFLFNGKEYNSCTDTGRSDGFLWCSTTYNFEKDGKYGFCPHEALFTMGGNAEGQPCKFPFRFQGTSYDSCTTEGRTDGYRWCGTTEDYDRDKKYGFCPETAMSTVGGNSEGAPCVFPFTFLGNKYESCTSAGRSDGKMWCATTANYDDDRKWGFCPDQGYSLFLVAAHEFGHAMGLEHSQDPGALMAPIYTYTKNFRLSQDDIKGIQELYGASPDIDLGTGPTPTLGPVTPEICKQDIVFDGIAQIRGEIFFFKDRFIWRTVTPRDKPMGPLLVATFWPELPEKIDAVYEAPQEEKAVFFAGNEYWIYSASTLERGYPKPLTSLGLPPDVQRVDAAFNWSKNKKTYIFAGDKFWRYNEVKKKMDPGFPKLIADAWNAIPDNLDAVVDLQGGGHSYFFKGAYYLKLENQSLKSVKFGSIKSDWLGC

Chain of MMP-8 (P22894 100-262): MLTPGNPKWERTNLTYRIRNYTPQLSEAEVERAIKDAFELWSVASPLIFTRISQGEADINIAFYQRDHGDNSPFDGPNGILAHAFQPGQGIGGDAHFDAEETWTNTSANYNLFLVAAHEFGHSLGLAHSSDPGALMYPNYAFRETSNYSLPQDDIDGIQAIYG

Row | Compound | Ki [1] [nM] | Inhibition type, MMP-9 [2] | Ki [2] [nM] | residence time [2] [min] | also measured
1 | CCOC(=O)Oc1ccc(Oc2ccc(S(=O)(=O)CC3CS3)cc2)cc1 (stereo not shown) [ND-395] | 11000 | slow-binding | 930 | 119 | 
2 | O=S(=O)(CC1CS1)c1ccc(Oc2ccccc2)cc1 (stereo not shown) [SB-3CT, reference compound] |  | slow-binding |  |  | 
3 | CCC(=C/[C@H](C)C/C=C/C(C)=C/[C@@H](C)C(=O)[C@@H](C)[C@H](O)[C@@H](C)C/C(C)=C/C(=O)O)/C=C/[C@@H]1OC(=O)C=C[C@@H]1C [leptomycin B] |  |  |  |  | inflammation in ultraviolet B irradiated murine skin [3]: suppressed inflammation
4 | O=S(=O)(CC1CS1)c1ccc(Oc2ccc(O)cc2)cc1 (stereo not shown) [p-OH SB-3CT] | 2600 | slow-binding | 160 | 24.5 | Inhibition type, MMP-8 [1]: non-competitive
5 | TIMP1: endogenous protein inhibitor, tissue inhibitor of metalloproteinase |  |  |  |  | residence time of TIMP on MMP-9 [4]: 7.9 min; residence time of TIMP on MMP-2 [5]: 6.9 min

Source: patent US10357546B2, “Acceleration of diabetic wound healing” (University of Notre Dame du Lac, priority 2014, dated 2019)
